This is an account of results in patent EP4592286A1, “MACROCYCLIC NITROGEN-CONTAINING CROWN ETHER COMPOUND AND USE THEREOF AS PROTEIN KINASE INHIBITOR” (Artivila Biopharma, priority 2022, dated 2024).

Assay [1] deals with T1, JAK1 (Homo sapiens, UniProt P23458). The assay is described as follows: experiment of inhibiting kinase activity (Caliper mobility shift assay), JAK1. Format: biochemical. Conditions: for inhibition at 0.01 µM: at 10 nM; for inhibition at 0.01 µM / inhibition at 0.1 µM: read-out: inhibition rate JAK1; for inhibition at 0.1 µM: at 100 nM; for IC50: kinase activity assay, Table 3. The gist of the method:
(§1)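 Mobility-shift readout of substrate conversion; % inhibition normalized to uninhibited-enzyme wells (0%) and buffer-only background wells. Dosing: single points at 10 and 100 nM, or 3-fold series from 10 µM (10 conc.), replicates. Kinase + compound 10 min RT, then ATP/substrate.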

Assay [2] has as its target T1, JAK1. As to the kind of experiment: JAKs cell activity test: detection of pSTAT6 in THP1 cells induced by JAK1_IL-4. Format: cell-based. Conditions: pSTAT6, IL-4-induced THP1 cells. Here is the method: Detection of pSTAT6 in THP1 cells induced by JAK1_IL-4
THP1 cells were collected by centrifugation, resuspended with 1×HBSS, counted and diluted to a certain cell density. They were inoculated in a 384-well plate and cultured in a saturated humidity incubator with 37 °C and 5% CO2. The compound (DMSO final volume of 0.3%) was added to THP1 cells (10 doses in duplicates) and cultured in a saturated humidity incubator with 37 °C and 5% CO2. hIL-4 was added to stimulate cells and cultured in a saturated humidity incubator with 37 °C and 5% CO2. The lysis solution was added and incubated at room temperature. According to the instructions of AlphaLISA SureFire Ultra p-STAT6 detection kit, the lysis solution was transferred to pSTAT6 detection system, and the ALPHA signal was read by PE Envision microplate reader. The inhibition rate Inh%=((DMSO-sample)/(DMSO-background))×100 was calculated. IC50 was obtained by fitting with GraphPad Prism non-linear regression equation, and y=Bottom+(Top-Bottom)/(1+10^((LogIC50-x)×hillslope)), where x was the concentration of the compound and y was the inhibition rate.

In assay [3] the target is LRRK2 (Homo sapiens, UniProt Q5S007). As to the kind of experiment: experiment of inhibiting kinase activity, LRRK2. Format: biochemical. The note with it: for inhibition at 0.01 µM: at 10 nM; for inhibition at 0.01 µM / inhibition at 0.1 µM: read-out: inhibition rate LRRK2; for inhibition at 0.1 µM: at 100 nM; for IC50: kinase activity assay, Table 3. Here is the method: The inhibition rates of tested compounds on JAK1, JAK2, JAK3, TYK2, CDK7, CDK9, EGFR (T790M) and LRRK2 kinases were measured. The test concentrations of the compounds were 10 nM and 100 nM, and the detection was performed by replicate wells. Alternatively, compounds were 3-fold serial diluted from 10 µM for 10 concentrations in replicate wells.

Assay [4] has as its target JAK2 (Homo sapiens, UniProt O60674). As to the kind of experiment: experiment of inhibiting kinase activity (Caliper mobility shift assay), JAK2. The class given is biochemical. The note with it: for inhibition at 0.01 µM: at 10 nM; for inhibition at 0.01 µM / inhibition at 0.1 µM: read-out: inhibition rate JAK2; for inhibition at 0.1 µM: at 100 nM; for IC50: kinase activity assay, Table 3. The procedure, abridged:
as §1

Assay [5] addresses T2, JAK3 (Homo sapiens, UniProt P52333).
T2 sequence (P52333 1-1124): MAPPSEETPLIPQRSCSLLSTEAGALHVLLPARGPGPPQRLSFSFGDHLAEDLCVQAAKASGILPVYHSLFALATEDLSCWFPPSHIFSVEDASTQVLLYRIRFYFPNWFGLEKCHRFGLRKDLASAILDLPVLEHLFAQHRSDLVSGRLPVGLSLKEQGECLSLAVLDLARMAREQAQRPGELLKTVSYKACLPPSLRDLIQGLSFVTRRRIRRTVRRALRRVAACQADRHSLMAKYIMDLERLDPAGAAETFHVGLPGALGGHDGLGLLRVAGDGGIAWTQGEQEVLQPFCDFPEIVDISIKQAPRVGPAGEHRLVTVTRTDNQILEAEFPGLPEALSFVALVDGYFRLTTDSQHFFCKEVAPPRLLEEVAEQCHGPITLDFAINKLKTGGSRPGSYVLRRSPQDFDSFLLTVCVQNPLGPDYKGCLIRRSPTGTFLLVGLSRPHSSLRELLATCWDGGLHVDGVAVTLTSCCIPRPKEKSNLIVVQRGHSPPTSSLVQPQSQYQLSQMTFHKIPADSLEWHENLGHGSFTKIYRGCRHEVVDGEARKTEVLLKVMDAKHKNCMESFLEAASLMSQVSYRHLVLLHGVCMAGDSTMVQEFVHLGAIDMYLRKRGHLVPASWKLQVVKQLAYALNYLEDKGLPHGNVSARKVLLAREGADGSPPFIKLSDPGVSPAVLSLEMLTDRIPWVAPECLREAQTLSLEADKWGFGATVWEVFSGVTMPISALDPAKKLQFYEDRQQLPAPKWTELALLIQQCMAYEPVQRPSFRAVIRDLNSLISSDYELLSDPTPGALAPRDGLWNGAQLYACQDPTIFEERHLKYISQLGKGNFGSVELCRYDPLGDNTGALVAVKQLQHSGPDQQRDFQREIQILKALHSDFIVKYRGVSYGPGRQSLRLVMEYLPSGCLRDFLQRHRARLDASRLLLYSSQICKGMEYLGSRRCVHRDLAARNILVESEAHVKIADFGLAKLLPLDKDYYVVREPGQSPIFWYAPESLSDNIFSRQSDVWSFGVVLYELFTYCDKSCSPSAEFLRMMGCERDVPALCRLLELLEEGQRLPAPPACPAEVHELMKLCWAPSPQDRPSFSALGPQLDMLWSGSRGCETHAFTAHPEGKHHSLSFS
As to the kind of experiment: experiment of inhibiting kinase activity (Caliper mobility shift assay), JAK3. The class given is biochemical. The note with it: for inhibition at 0.01 µM: at 10 nM; for inhibition at 0.01 µM / inhibition at 0.1 µM: read-out: inhibition rate JAK3; for inhibition at 0.1 µM: at 100 nM. The procedure, abridged:
as §1

Sequence of LRRK2 (Q5S007 whole entry): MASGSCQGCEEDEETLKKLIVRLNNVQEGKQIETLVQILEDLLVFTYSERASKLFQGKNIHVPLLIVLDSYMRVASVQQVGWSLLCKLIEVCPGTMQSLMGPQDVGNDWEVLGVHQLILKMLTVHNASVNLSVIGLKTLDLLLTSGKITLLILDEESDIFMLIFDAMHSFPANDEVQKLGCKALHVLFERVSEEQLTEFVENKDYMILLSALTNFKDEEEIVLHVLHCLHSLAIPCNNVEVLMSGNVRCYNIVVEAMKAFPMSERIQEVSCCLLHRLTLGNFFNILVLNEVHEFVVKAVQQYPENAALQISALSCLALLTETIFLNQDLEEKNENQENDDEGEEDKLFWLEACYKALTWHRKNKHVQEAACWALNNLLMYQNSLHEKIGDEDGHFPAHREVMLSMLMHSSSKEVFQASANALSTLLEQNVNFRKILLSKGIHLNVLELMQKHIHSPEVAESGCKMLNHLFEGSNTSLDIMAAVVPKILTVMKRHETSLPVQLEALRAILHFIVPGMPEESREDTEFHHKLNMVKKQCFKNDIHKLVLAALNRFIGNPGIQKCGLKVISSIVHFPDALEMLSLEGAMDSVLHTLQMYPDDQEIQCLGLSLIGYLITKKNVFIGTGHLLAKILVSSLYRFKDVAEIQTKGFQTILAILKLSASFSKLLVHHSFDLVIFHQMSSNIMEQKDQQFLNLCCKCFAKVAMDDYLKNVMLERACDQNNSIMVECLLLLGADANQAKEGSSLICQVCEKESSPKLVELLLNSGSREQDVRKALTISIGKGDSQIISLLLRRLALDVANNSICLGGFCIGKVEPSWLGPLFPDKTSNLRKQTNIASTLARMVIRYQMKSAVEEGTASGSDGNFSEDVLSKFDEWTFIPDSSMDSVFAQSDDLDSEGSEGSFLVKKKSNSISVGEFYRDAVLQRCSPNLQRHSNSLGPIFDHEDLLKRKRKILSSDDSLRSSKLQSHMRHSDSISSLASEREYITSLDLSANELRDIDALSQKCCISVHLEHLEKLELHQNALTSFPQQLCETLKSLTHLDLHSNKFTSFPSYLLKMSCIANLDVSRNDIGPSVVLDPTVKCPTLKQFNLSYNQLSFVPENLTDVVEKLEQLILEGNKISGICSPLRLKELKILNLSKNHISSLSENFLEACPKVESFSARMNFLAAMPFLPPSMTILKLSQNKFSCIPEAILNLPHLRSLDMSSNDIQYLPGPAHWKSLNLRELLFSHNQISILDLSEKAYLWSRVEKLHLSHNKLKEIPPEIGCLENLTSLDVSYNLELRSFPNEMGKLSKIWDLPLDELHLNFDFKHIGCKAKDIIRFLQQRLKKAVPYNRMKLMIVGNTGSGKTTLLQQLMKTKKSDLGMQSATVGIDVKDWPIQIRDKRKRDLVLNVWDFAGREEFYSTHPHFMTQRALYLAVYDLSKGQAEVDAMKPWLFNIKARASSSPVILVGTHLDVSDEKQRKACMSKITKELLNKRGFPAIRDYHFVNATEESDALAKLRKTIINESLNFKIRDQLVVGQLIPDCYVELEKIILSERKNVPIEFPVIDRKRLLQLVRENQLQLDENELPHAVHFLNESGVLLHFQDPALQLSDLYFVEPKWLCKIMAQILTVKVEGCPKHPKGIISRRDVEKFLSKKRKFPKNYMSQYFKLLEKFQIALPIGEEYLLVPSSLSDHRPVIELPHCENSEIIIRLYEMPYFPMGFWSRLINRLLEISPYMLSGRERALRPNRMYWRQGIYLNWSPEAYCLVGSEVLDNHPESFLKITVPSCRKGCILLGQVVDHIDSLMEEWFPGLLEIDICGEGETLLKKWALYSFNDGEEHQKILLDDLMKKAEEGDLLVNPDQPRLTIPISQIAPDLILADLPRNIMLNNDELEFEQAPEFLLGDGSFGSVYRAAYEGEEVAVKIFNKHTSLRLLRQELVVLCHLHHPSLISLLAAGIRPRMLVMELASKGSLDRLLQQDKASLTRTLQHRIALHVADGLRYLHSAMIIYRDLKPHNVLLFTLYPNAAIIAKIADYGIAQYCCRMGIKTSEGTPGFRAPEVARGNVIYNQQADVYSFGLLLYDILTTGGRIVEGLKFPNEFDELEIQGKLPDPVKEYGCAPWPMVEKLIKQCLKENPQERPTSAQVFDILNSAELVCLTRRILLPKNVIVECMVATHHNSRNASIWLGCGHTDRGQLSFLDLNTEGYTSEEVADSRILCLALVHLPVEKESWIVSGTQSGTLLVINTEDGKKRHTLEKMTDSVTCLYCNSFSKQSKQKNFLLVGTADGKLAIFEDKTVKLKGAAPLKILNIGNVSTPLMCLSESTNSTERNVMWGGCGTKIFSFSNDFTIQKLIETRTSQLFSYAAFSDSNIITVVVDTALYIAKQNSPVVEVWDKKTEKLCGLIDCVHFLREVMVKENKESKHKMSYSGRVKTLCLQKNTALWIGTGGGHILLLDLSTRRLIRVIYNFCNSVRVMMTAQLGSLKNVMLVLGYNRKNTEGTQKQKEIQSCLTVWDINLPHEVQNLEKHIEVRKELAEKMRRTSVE
T1 sequence (P23458 whole entry): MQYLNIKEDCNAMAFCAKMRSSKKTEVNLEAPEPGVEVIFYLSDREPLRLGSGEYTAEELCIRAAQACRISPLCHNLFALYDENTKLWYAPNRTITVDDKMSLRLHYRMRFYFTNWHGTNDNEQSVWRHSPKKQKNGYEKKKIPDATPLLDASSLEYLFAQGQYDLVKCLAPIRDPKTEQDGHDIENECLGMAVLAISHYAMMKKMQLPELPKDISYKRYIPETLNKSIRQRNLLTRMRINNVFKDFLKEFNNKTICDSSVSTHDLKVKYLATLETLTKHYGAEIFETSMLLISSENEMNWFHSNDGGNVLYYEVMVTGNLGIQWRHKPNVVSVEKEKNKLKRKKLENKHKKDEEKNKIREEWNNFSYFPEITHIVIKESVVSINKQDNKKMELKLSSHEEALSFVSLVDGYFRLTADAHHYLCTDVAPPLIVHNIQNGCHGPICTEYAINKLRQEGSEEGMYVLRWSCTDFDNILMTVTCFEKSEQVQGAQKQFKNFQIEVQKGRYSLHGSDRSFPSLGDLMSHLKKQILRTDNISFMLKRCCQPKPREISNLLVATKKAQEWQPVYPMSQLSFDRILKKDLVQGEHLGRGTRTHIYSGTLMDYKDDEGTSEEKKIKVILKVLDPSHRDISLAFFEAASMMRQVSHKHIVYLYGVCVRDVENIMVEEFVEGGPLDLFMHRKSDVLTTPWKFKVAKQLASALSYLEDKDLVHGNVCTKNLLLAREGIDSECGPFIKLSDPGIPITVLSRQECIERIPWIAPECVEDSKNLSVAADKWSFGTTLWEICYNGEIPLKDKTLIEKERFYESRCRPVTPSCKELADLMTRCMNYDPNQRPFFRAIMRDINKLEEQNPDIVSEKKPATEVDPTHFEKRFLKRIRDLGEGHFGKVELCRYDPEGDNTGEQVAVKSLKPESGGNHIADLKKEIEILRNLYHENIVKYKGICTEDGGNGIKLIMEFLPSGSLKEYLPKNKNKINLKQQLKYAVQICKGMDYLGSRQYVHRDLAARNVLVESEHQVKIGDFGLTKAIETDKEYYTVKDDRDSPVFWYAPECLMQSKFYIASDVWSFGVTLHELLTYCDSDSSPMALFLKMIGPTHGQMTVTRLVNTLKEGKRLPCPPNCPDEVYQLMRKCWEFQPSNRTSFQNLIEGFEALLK
Sequence of JAK2 (O60674 whole entry): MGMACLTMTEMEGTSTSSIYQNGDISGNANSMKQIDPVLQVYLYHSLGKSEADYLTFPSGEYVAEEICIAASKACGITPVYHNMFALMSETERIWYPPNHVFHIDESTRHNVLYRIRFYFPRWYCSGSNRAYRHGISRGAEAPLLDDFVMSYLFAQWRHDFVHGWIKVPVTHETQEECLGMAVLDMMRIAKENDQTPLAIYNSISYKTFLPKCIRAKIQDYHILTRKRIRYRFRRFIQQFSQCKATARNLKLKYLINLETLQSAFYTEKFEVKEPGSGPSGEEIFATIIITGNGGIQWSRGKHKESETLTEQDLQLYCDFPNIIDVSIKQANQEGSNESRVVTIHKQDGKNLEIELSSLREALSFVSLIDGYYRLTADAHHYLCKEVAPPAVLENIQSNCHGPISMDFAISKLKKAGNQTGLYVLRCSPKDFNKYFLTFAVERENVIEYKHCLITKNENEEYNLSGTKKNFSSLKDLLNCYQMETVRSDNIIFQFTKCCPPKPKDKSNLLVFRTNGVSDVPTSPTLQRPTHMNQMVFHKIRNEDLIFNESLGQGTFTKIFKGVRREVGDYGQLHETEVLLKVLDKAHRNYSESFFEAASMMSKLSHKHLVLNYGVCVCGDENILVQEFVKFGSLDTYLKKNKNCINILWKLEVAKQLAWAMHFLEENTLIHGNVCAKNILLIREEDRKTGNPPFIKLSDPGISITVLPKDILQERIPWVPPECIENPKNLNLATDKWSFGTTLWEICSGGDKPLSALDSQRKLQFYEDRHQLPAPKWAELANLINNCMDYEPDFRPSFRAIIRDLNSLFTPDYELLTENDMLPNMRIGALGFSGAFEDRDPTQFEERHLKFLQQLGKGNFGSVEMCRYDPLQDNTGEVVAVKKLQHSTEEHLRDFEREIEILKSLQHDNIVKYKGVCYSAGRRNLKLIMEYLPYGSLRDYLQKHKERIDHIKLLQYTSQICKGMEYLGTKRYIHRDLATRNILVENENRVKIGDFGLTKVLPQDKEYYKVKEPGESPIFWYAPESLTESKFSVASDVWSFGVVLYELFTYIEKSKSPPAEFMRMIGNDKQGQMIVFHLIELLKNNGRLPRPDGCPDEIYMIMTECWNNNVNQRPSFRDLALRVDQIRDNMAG

On to `CCS(=O)(=O)N1CC(CC#N)(n2cc(-c3nc(Nc4ccc5c(c4)OCCN(C)CCO5)nc4[nH]ccc34)cn2)C1` [Example 28, 2-(1-(ethylsulfonyl)-3-(4-(2-((4-methyl-3,4,5,6-tetrahydro-2H-benzo[b][1,4,7]dioxazolin-9-yl)amino)-7H-pyrrolo[2,3-d]pytimidin-4-yl)-1H-pyrazol-1-yl)azetidin-3-yl) acetonitrile], for which the results for the inhibition at 0.01 µM in assay [1], in assay [3] and in assay [4] were above 80%, 40 to 79% and above 80%, respectively. The inhibition at 0.1 µM in assay [1], in assay [3] and in assay [4] was above 80% in each case. Also, the IC50 in assay [1], in assay [3] and in assay [4] was below 50 nM in each case. In addition, in assay [2], the EC50 was below 50 nM.

As for `CN1CCOCCOc2cc(Nc3ncc(F)c(-c4ccc(C(=O)NCC#N)cc4)n3)ccc2OCC1` [Example 16, N-(cyanomethyl)-4-(5-fluoro-2-((7-methyl-2,3,6,7,8,9-hexahydro-5H-benzo[b][1,4,7]trioxa[10]azacyclododecan-13-yl)amino)pyrimidin-4-yl)benzamide], the inhibition at 0.01 µM in assay [5] and in assay [4] was 40 to 79% each time. Also, the inhibition at 0.1 µM in assay [5] is above 80%; in assay [1] it was 40 to 79%; in assay [3] it was 40 to 79%; in assay [4], above 80%. In addition, the IC50 is below 50 nM in assay [5] (kinase activity assay, Table 3); 50 to 200 nM in assay [1]; 50 to 200 nM in assay [3]; below 50 nM in assay [4]. For the same compound, the EC50 in assay [2] fell in the range of 50 to 500 nM.

For the compound `CN1CCOCCOc2cc(Nc3nc(-c4cnn(C(CC#N)C5CCCC5)c4)c4cc[nH]c4n3)ccc2OCC1` (stereo not drawn) [Example 26, 3-cyclopentyl-3-(4-(2-((7-methyl-2,3,6,7,8,9-hexahydro-5H-benzo[b][1,4,7]trioxa[10]azacyclododecan-13-yl)amino)-7H-pyrrolo[2,3-d]pytimidin-4-yl)-1H-pyrazol-1-yl)propionitrile], the inhibition at 0.01 µM in assay [5], in assay [1], in assay [3] and in assay [4] was above 80% throughout. Also, the inhibition at 0.1 µM in assay [5], in assay [1], in assay [3] and in assay [4] was above 80% each time. Moreover, the EC50 in assay [2] is below 50 nM.

What is called inhibition is the drop in the measured response relative to a control, in per cent. In general, IC50 refers to the concentration that inhibits the measured activity by half. For orientation: EC50 means the concentration needed to bring the measured effect to its halfway point. A high value points to a need for much substance.
